Experiments:
[1] = tested on: arthritic rats (adjuvant arthritis); test: Analgesic activity: effect on adjuvant arthritis in rats (Randall-Selitto pain threshold); assay type: in vivo, Lewis rats; details: Rattus norvegicus, single dose, pain threshold of left hind paw 2 hrs after administration, threshold pressure of treated vs non-treated rats, ratio of 1.5 considered effective, read-out: The coefficient of analgesic
[2] = molecular target: T1, COX-I (Homo sapiens, UniProt P23219); test: Whole blood assay for COX-I (TXB2 production); assay type: cell-based
T1 construct: Fresh blood was collected by syringe without anticoagulants from volunteers with consent; from tissue; host or cells: fresh human whole blood from volunteers, allowed to clot
Protocol: [B] Inhibiting Activity Against COX-I and COX-II (Whole Blood Assay) (i) Test Metho: Whole Blood Assay for COX-I
Fresh blood was collected by syringe without anticoagulants from volunteers with consent. The subjects had no apparent inflammatory conditions and had not taken any medication for at least 7 days prior to blood collection.
500 μl Aliquots of human whole blood were immediately incubated with 2 μl of either dimethyl sulfoxide vehicle or a test compound at final concentrations for 1 hr at 37° C. to allow the blood to clot. Appropriate treatments (no incubation) were used as blanks. At the end of the incubation, 5 μl of 250 mM Indomethacin was added to stop the reaction. The blood was centrifuged at 6000×g for 5 min at 4° C. to obtain serum. A 100 μl aliquot of serum was mixed with 400 μl methanol for protein precipitation. The supernatant was obtained by centrifuging at 6000×g for 5 min at 4° C. and was assayed for TXB2 using an enzyme immunoassay kit according to the manufacturer's procedure. For a test compound, the results were expressed as percent inhibition of thromboxane B2(TXB2) production relative to control incubations containing dimethyl sulfoxide vehicle.
The data were analyzed by that a test compound at the indicated concentrations was changed log value and was applied simple linear regression. IC50 value was calculated by least squares method.

[3] = molecular target: T2, COX-II (Homo sapiens, UniProt P35354); test: Whole blood assay for COX-II (LPS-induced PGE2 production); assay type: cell-based; details: LPS 24 hrs at 37° C., inhibition of PGE2 production
T2 construct: incubation of the blood with 10 μl of 5 mg/ml lipopolysaccharide for 24 hrs at 37° C. for induction of COX-II; from tissue; host or cells: heparinized fresh human whole blood from volunteers, LPS-stimulated
T2 sequence (P35354 18-604): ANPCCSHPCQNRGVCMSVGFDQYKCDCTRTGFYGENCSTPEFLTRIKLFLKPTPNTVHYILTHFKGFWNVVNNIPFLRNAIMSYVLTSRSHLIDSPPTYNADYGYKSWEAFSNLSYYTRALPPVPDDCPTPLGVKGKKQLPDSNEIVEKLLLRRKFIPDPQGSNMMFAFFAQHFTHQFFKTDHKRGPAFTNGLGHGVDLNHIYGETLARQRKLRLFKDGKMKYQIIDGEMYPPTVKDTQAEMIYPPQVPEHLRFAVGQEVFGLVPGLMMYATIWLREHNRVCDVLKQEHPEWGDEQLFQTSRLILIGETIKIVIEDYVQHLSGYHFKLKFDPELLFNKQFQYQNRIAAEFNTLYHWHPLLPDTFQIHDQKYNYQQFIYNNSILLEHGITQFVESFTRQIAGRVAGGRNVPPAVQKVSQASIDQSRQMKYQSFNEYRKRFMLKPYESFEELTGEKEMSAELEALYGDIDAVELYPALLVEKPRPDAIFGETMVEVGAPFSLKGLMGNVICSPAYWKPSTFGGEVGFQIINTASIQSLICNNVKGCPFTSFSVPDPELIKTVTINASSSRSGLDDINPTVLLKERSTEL
Protocol: Whole Blood Assay for COX-II
Fresh blood was collected in heparinized tubes by syringe from volunteers with consent. The subjects had no apparent inflammatory conditions and had not taken any medication for at least 7 days prior to blood collection.
500 μl aliquots of human whole blood were incubated with either 2 μl dimethyl sulfoxide vehicle or 2 μl of a test compound at final concentrations for 15 min at 37° C. This was followed by incubation of the blood with 10 μl of 5 mg/ml lipopolysaccharide for 24 hrs at 37° C. for induction of COX-II. Appropriate PBS treatments (no LPS) were used as blanks. At the end of the incubation, the blood was centrifuged at 6000×g for 5 min at 4° C. to obtain plasma. A 100 μl aliquot of plasma was mixed with 400 μl methanol for protein precipitation. The supernatant was obtained by centrifuging at 6000×g for 5 min at 4° C. and was assayed for prostaglandin E2 (PGE2) using a radioimmunoassay kit after conversion of PGE2 to its methyl oximate derivative according to the manufacturer's procedure.
For a test compound, the results were expressed as percent inhibition of PGE2 production relative to control incubations containing dimethyl sulfoxide vehicle. The data were analyzed by that a test compound at the indicated concentrations was changed log value and was applied simple linear regression. IC50 value was calculated by least squares method.

T1 sequence (P23219 24-599): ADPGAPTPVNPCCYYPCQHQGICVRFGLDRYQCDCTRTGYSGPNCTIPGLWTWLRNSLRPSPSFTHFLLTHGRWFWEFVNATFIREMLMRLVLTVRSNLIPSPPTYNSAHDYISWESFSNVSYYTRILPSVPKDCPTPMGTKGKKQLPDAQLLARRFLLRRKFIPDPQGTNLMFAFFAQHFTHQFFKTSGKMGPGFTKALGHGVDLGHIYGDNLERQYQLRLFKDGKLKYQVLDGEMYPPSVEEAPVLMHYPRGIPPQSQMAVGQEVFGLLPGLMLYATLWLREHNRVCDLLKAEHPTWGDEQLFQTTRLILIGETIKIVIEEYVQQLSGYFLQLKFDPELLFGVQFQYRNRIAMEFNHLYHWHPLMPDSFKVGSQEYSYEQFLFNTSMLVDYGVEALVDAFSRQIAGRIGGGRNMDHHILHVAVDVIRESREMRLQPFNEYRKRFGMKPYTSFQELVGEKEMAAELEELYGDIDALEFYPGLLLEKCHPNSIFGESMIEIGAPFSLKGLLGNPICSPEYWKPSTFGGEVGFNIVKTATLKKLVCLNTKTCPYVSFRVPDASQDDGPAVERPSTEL

| melting point | Structure (SMILES) | further results |
| --- | --- | --- |
| 144.8 to 145.4 °C | COc1ccc(-n2nc(Cl)cc2-c2ccc(OCCNC(N)=O)cc2)cc1 [Example 28, N-(2-{4-[3-Chloro-1-(4-methoxyphenyl)-1H-pyrazol-5-yl]-phenoxy}ethyl)urea] | response vs control in vivo at 3.2 mg/kg [1]: > 150%; IC50 [2]: < 10 nM; IC50 [3]: > 100 nM |
| 109.8 to 110.2 °C | COc1ccc(-n2nc(C(F)(F)F)cc2-c2ccc(OCCNC(C)=O)cc2)cc1 [Example 254] | response vs control in vivo at 3.2 mg/kg [1]: ≥ 150%; IC50 [2]: < 10 nM; IC50 [3]: > 100 nM |
| – | COc1ccc(C2N=C(C(F)F)C=C2c2ccc(OCCNC(N)=O)cc2)cc1 (centres unmarked) [Example 181] | response vs control in vivo at 3.2 mg/kg [1]: ≥ 150%; IC50 [2]: < 10 nM; IC50 [3]: > 100 nM |
| – | COc1ccc(-n2nc(C(F)(F)F)cc2-c2ccc(OCCN)cc2)cc1 [Example 267] | response vs control in vivo at 3.2 mg/kg [1]: ≥ 150% |
| 114.7 to 115.5 °C | COc1ccc(-n2nc(Cl)cc2-c2ccc(OCCO)cc2)cc1 [Example 23, 2-{4-[3-Chloro-1-(4-methoxyphenyl)-1H-pyrazol-5-yl]-phenoxy}ethanol] | response vs control in vivo at 3.2 mg/kg [1]: > 150%; IC50 [2]: < 10 nM; IC50 [3]: > 100 nM |
| 110 to 111 °C | CCN(C)C(=O)c1cc(-c2ccc(OCCO)cc2)n(-c2ccc(OC)nc2)n1 | – |
| 108 to 113 °C | CCN(C)C(=O)c1cc(-c2ccc(OCCNC(N)=O)cc2)n(-c2ccc(OC)cc2)n1 | – |
| 184.7 to 185.1 °C | CCN(C)C(=O)c1cc(-c2ccc(CNC(N)=O)cc2)n(-c2ccc(OC)cc2)n1 | – |
| 129 to 142 °C | COc1ccc(-n2nc(C(=O)C(C)C)cc2-c2ccc(OCCN)cc2)cc1.Cl | – |
| 92.2 to 92.5 °C | COc1ccc(-n2nc(OC)cc2-c2ccc(OCCO)cc2)cn1 | – |
| 125 to 126 °C | COc1ccc(-n2nc(C(F)(F)F)cc2-c2ccc(CNS(C)(=O)=O)cc2)cn1 | – |
| 130 to 132 °C | COc1ccc(-n2nc(OCC(F)(F)F)cc2-c2ccc(OCCNC(N)=O)cc2)cc1 | – |
| 67.7 to 69.2 °C | CCOc1cc(-c2ccc(OCCO)cc2)n(-c2ccc(OC)cc2)n1 | – |
| 160.8 to 161.2 °C | COc1ccc(-n2nc(C(=O)C(C)C)cc2-c2ccc(CNS(C)(=O)=O)cc2)cn1 | – |
| 137 to 138 °C | CCN(C)C(=O)c1cc(-c2ccc(CCNS(C)(=O)=O)cc2)n(-c2ccc(OC)nc2)n1 | – |
| 149 °C | CNC(=O)NCCc1ccc(-c2cc(C(F)(F)F)nn2-c2ccc(OC)nc2)cc1 | – |
| – | COc1ccc(-n2nc(C(F)(F)F)cc2-c2ccc(OCCNC(N)=O)cc2)cc1 [Example 240] | response vs control in vivo at 3.2 mg/kg [1]: ≥ 150%; IC50 [2]: < 10 nM; IC50 [3]: > 100 nM |
| 145 to 147 °C | COc1ccc(-n2nc(C(=O)C(C)C)cc2-c2ccc(OCCNC(N)=O)cc2)cn1 | – |
| 96 to 97 °C | COc1ccc(-n2nc(C(C)C)cc2-c2ccc(OCCNS(C)(=O)=O)cc2)cn1 | – |
| 186 to 189 °C | COc1ccc(-n2nc(C#N)cc2-c2ccc(OCCN)cc2)cc1.Cl | – |
| 162 to 163 °C | CCN(C)C(=O)c1cc(-c2ccc(CCNS(C)(=O)=O)cc2)n(-c2ccc(OC)cc2)n1 | – |
| 223 to 227 °C | COc1ccc(-n2nc(OCC(=O)N(C)C)cc2-c2ccc(OCCNC(N)=O)cc2)cc1 | – |
| 139 to 140 °C | COc1ccc(-n2nc(OC(C)C)cc2-c2ccc(OCCNC(N)=O)cc2)cc1 | – |
| 125.5 to 126.2 °C | COc1ccc(-n2nc(Cl)cc2-c2ccc(CNC(N)=O)cc2)cc1 | – |
| 132 to 133 °C | COc1ccc(-n2nc(C(=O)C3CC3)cc2-c2ccc(OCCO)cc2)cc1 | – |
| 148 to 150 °C | COc1ccc(-n2nc(-c3nc(C)no3)cc2-c2ccc(CCO)cc2)cc1 | – |
| 142 to 143 °C | COc1ccc(-n2nc(C3CC3)cc2-c2ccc(OCCNS(N)(=O)=O)cc2)cc1 | – |

| melting point | Structure (SMILES) | further results |
| --- | --- | --- |
| 81 to 82 °C | CCOc1cc(-c2ccc(OCCO)cc2)n(-c2ccc(OC)nc2)n1 | – |
| 147 to 149 °C | COc1ccc(-n2nc(C(F)(F)F)cc2-c2ccc(CNC(N)=O)cc2)cn1 | – |
| 139 to 144 °C | COc1ccc(-n2nc(C(C)C)cc2-c2ccc(CNC(N)=O)cc2)cn1 | – |
| 229 to 231 °C | COc1ccc(-n2nc(C3CC3)cc2-c2ccc(OCCN)cc2)cc1.Cl [277] | – |
| 194 to 196 °C | COc1ccc(-n2nc(C(F)F)cc2-c2ccc(CCNC(N)=O)cc2)cn1 | – |
| 95 to 96 °C | COc1ccc(-n2nc(C(=O)C(C)C)cc2-c2ccc(OCCO)cc2)cc1 | – |
| 122 to 122.6 °C | CCOc1cc(-c2ccc(OCCNS(C)(=O)=O)cc2)n(-c2ccc(OC)nc2)n1 | – |
| 92 to 93 °C | COc1ccc(-n2nc(C(F)(F)F)cc2-c2ccc(CCC[S+](C)[O-])cc2)cn1 (centres unmarked) | – |
| 124.1 to 124.2 °C | CCOCCOc1cc(-c2ccc(OCCNC(N)=O)cc2)n(-c2ccc(OC)cc2)n1 | – |
| 144 to 145 °C | COc1ccc(-n2nc(C(=O)C(C)C)cc2-c2ccc(OCCNC(N)=O)cc2)cc1 | – |
| 178.9 °C | COc1ccc(-n2nc(C(=O)N3CCCCC3)cc2-c2ccc(CNC(N)=O)cc2)cn1 | – |
| 97 to 98 °C | COc1ccc(-n2nc(C(F)(F)C(F)(F)F)cc2-c2ccc(CCO)cc2)cc1 | – |
| 104 to 106 °C | COc1ccc(-n2nc(C(=O)C3CC3)cc2-c2ccc(OCCO)cc2)cn1 | – |
| 136.5 to 138.2 °C | COc1ccc(-n2nc(Cl)cc2-c2ccc(OCCO)cc2)cn1 | – |
| 79 to 80 °C | COc1ccc(-n2nc(C(F)(F)F)cc2-c2ccc(CCNC(C)=O)cc2)cc1 | – |
| 207 to 209 °C | CCN(C)C(=O)c1cc(-c2ccc(OCCN)cc2)n(-c2ccc(OC)cc2)n1.Cl | – |
| 139 to 140 °C | CNS(=O)(=O)CCc1ccc(-c2cc(C(F)(F)F)nn2-c2ccc(OC)nc2)cc1 | – |
| 68.3 to 69.3 °C | COc1ccc(-n2nc(Cl)cc2-c2ccc(CNS(C)(=O)=O)cc2)cc1 | – |
| – | COc1ccc(-n2nc(C(F)F)cc2-c2ccc(CNS(C)(=O)=O)cc2)cc1 [Example 61, N-{4-[3-(Difluoromethyl)-1-(4-methoxyphenyl)-1H-pyrazol-5-yl]benzyl}methanesulfonamide] | response vs control in vivo at 3.2 mg/kg [1]: > 150%; IC50 [2]: < 10 nM; IC50 [3]: > 100 nM |
| 139 to 140 °C | COc1ccc(-n2nc(C(F)F)cc2-c2ccc(OCCNC(N)=O)cc2)cn1 [241] | – |
| 127 to 128 °C | COc1ccc(-n2nc(C(F)(F)F)cc2-c2ccc(CCNS(N)(=O)=O)cc2)cc1 | – |
| 50.7 to 51.7 °C | COc1ccc(-n2nc(OCC(F)(F)F)cc2-c2ccc(OCCO)cc2)cc1 | – |
| 122.7 to 122.8 °C | CSc1ccc(-n2nc(C(F)F)cc2-c2ccc(OCCNS(C)(=O)=O)cc2)cc1 | – |
| 110 to 111 °C | CCN(C)C(=O)c1cc(-c2ccc(OCCNS(C)(=O)=O)cc2)n(-c2ccc(OC)nc2)n1 | – |
| 206 to 260.9 °C | COc1ccc(-n2nc(OC)cc2-c2ccc(CNC(N)=O)cc2)cc1 | – |
| 74 to 75 °C | COc1ccc(-n2nc(OC(C)C)cc2-c2ccc(OCCO)cc2)cn1 | – |

— patent publication US7183306B2, “Pyrazole derivatives” (Astellas Pharma Inc., priority 2002, dated 2007)
